Test system: intraocular pressure
Test: not given
Conditions: ingestion, normal subjects; cited from earlier work

SMILES | reduction of intraocular pressure [%]
CC1(C)[C@@H](OC(=O)CCC(=O)O)CC[C@]2(C)[C@H]3C(=O)C=C4[C@@H]5C[C@@](C)(C(=O)O)CC[C@]5(C)CC[C@@]4(C)[C@]3(C)CC[C@@H]12 [carbenoxolone] | 20

Target: T1, 11β-HSD1 (human enzyme) (Homo sapiens, UniProt P28845)
T1 construct: made in house
Test: Enzyme Assay (SPA, 3H-cortisone, purified HSD-1 enzyme prep), human enzyme
Format: biochemical
Conditions: species of enzyme not given

T1 sequence (P28845 whole entry): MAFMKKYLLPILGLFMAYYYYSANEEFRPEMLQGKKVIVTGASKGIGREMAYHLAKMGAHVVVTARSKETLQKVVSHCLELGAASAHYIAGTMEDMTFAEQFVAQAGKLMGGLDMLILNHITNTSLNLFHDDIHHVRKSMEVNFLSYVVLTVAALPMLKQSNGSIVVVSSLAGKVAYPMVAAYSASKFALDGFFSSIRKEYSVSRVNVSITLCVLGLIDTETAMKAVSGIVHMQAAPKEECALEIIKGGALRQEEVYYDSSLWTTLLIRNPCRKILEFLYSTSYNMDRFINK

IC50 [nM] | SMILES
< 20 | CO[C@@H]1CCC[C@@]2(C1)SC(NC1CCCCCCC1)=NC2=O [(5S,7R)-2-(cyclooctylamino)-7-(methyloxy)-1-thia-3-azaspiro[4.5]dec-2-en-4-one]
< 20 | CC(C)[C@@]1(C)SC(Nc2ccccc2Cl)=NC1=O [(5R)-2-((2-chlorophenyl)amino)-5-methyl-5-(1-methylethyl)-1,3-thiazol-4(5H)-one]
< 20 | CC(C)C1(C)SC(N[C@H](C)c2ccc(F)cc2)=NC1=O (stereo partly drawn) [2-((R)-1-(4-fluorophenyl)ethylamino)-5-isopropyl-5-methylthiazol-4(5H)-one]
< 20 | O=C1N=C(Nc2ccccc2F)SC1C1CCCC1 (centres unmarked) [5-cyclopentyl-2-(2-fluorophenylamino)thiazol-4(5H)-one]
< 20 | O=C1N=C(NCC2CCCCC2)SC1[C@H]1CCOC1 (stereo partly drawn) [2-(cyclohexylmethylamino)-5-(S)-tetrahydrofuran-3-yl)thiazol-4(5H)-one]
< 20 | C[C@H](NC1=NC(=O)C(C)(c2ccncc2)S1)c1ccccc1F (stereo partly drawn) [2-((S)-1-(2-fluorophenyl)ethylamino)-5-methyl-5-(pyridin-4-yl)thiazol-4(5H)-one]
< 20 | CC1(c2ccncc2)SC(Nc2ccccc2C(F)(F)F)=NC1=O (centres unmarked) [5-methyl-5-(pyridin-4-yl)-2-(2-(trifluoromethyl)phenylamino)thiazol-4(5H)-one]
< 20 | C[C@H](NC1=NC(=O)C(C)(c2ccncc2)S1)c1ccc(F)cc1 (stereo partly drawn) [2-((S)-1-(4-fluorophenyl)ethylamino)-5-methyl-5-(pyridin-4-yl)thiazol-4(5H)-one]
< 20 | CCC1(C)SC(NC23CC4CC(CC(C4)C2)C3)=NC1=O (centres unmarked) [5-ethyl-5-methyl-2-(tricyclo[3.3.1.1˜3,7˜]dec-1-ylamino)-1,3-thiazol-4(5H)-one]
< 20 | C[C@@]1(c2ccccc2)SC(Nc2ccccc2Cl)=NC1=O [(5S)-2-((2-chlorophenyl)amino)-5-methyl-5-phenyl-1,3-thiazol-4(5H)-one]
< 20 | CC1([C@H]2CCOC2)SC(NCC2CCCCC2)=NC1=O (stereo partly drawn) [2-(cyclohexylmethylamino)-5-methyl-5-((S)-tetrahydrofuran-3-yl)thiazol-4(5H)-one]
< 20 | CC(C)C1(C)SC(N[C@@H](C)C2CCCCC2)=NC1=O (stereo partly drawn) [2-((S)-1-cyclohexylethylamino)-5-isopropyl-5-methylthiazol-4(5H)-one]

The remaining lines, values behind:

SMILES | IC50 [nM]
CC(C)C1SC(Nc2ccccc2Cl)=NC1=O (centres unmarked) [2-((2-chlorophenyl)amino)-5-(1-methylethyl)-1,3-thiazol-4(5H)-one] | < 20
CC1(C2CCOCC2)SC(Nc2ccccc2Cl)=NC1=O (centres unmarked) [2-(2-chlorophenylamino)-5-methyl-5-(tetrahydro-2H-pyran-4-yl)thiazol-4(5H)-one] | < 20
O=C1N=C(Nc2ccccc2Cl)SC1C1CCCC1 (centres unmarked) [2-(2-chlorophenylamino)-5-cyclopentylthiazol-4(5H)-one] | < 20
CC1(c2ccncc2)SC(Nc2ccccc2Cl)=NC1=O (centres unmarked) [2-(2-chlorophenylamino)-5-methyl-5-(pyridin-4-yl)thiazol-4(5H)-one] | < 20
Cc1ccc(F)cc1NC1=NC(=O)C(C(C)C)S1 (centres unmarked) [2-((5-fluoro-2-methylphenyl)amino)-5-(1-methylethyl)-1,3-thiazol-4(5H)-one] | < 20
CC(C)C1(C)SC(NC23CC4CC(CC(F)(C4)C2)C3)=NC1=O (centres unmarked) [2-((3-fluorotricyclo[3.3.1.1˜3,7˜]dec-1-yl)amino)-5-methyl-5-(1-methylethyl)-1,3-thiazol-4(5H)-one] | < 20
CC1(CC(F)(F)F)SC(N[C@@H]2C[C@H]3CC[C@@H]2C3)=NC1=O (stereo partly drawn) [2-((1R,2R,4S)-bicyclo[2.2.1]heptan-2-ylamino)-5-methyl-5-(2,2,2-trifluoroethyl)thiazol-4(5H)-one] | < 20
CC1(c2ccccc2)SC(Nc2ccccc2Cl)=NC1=O (centres unmarked) [2-((2-chlorophenyl)amino)-5-methyl-5-phenyl-1,3-thiazol-4(5H)-one] | < 20
O=C1N=C(Nc2ccccc2Cl)SC1C1CCCCC1 (centres unmarked) [2-(2-chlorophenylamino)-5-cyclohexylthiazol-4(5H)-one] | < 20
O=C1N=C(Nc2ccccc2F)SC12CCCC2 [2-((2-fluorophenyl)amino)-1-thia-3-azaspiro[4.4]non-2-en-4-one] | < 20
Cc1c(Cl)cccc1NC1=NC(=O)C(C(C)C)S1 (centres unmarked) [2-((3-chloro-2-methylphenyl)amino)-5-(1-methylethyl)-1,3-thiazol-4(5H)-one] | < 20
CCCC1(C)SC(N[C@@H]2C[C@H]3CC[C@@H]2C3)=NC1=O (stereo partly drawn) [2-((1R,2R,4S)-bicyclo[2.2.1]heptan-2-ylamino)-5-methyl-5-propylthiazol-4(5H)-one] | < 20
O=C1N=C(Nc2ccccc2F)SC1[C@H]1CCOC1 (stereo partly drawn) [2-(2-fluorophenylamino)-5-((S)-tetrahydrofuran-3-yl)thiazol-4(5H)-one] | < 20

Source: patent US8686011B2, “Inhibitors of 11-β-hydroxy steroid dehydrogenase type 1” (Amgen Inc., priority 2004, dated 2014)
